According to patent US20120237614A1, “PEPTIDE ABLE TO DISRUPT THE PROTEIN COMPLEX BETWEEN THE HIS273 MUTADED P53 PROTEIN AND THE ONCOSUPPRESSIVE P73 PROTEIN IN TUMOR CELLS AND THERAPEUTIC USES THEREOF” (priority 2009, published 2012):
Entries after “also recorded” stand apart in the source; their conditions may differ.

How the values were obtained:
[1] = system: MDA-MB-468 cells (His-273 p53 mutation); experiment: Transactivation test (pLUC-BAX, pLUC-p21) in Adriamycin treated MDA-MB-468 cells; format: cell-based, human; settings: MDA-MB-468, 3 μM Adriamycin 24 hours post-transfection, luciferase reporter
Procedure: MDA-MB-468 cells have been transfected using a mixture containing lipofectamine, pLUC-BAX plasmid, β-galactosidase expression vector, SIMP1 and SIMP control peptides. The cells, 24 hours post-transfection, have been treated with 3 μM Adriamycin.
MDA-MB-468 cells have been transfected using a mixture containing lipofectamine, pLUC-BAX plasmid, pLUC-p21, β-galactosidase expression vector, SIMP1 peptides and SIMP1M and SIMP1KO derived mutant thereof. The cells, 24 hours post-transfection, have been treated with 3 μM Adriamicyn and then processed.
(§1) SKBR3, HT-29, MDA-MB-468 cell lines have been transfected with Lipofectamine 2000 according to the supplier instructions (InVitrogen).
(§2) Cells (1.5×10^5) have been transiently transfected using SIMP peptides, expression plasmids and reporter constructs as internal controls for transfection efficiency. After the transfection, SKBR3, HT-29 and MDA-MB-468 have been incubated with 3 μM ADR over 24 hours. Cells have been washed with cold PBS and re-suspended in lysis buffer (Promega) and incubated for 10 min at room temp. Insoluble material has been centrifuged and luciferase activity has been determined using a commercial kit with a luminometer (Turner).

[2] = system: HT29 (His-273) colon carcinoma cells; experiment: Transactivation test (pLUC-BAX) in Adriamycin treated HT29 cells; format: cell-based, human; settings: 3 μM Adriamycin
Procedure: (§3) (A) In order to verify the SIMPI peptide specificity, independently from the cellular context, we tested SIMP1 peptides in some Adriamicyn treated colon carcinoma HT29 (His-273). cell lines. The cells have been transfected using a mixture containing lipofectamine, pLUC-BAX plasmid, β-galactosidase expression vector, SIMP1 and SIMP5M control peptides. 24 hours post-transfection, have been treated with 3 μM Adriamicyn. (B-C). Viability and inhibition assays have been carried out after transfection using SIMP1 and SIMP5M peptides in HT29 (colon cancer) and MDA-MB-468 (breast cancer) cell lines
as §1, §2

mutp53 His-273 protein = target: T1, mutp53 His-273 protein (Homo sapiens, UniProt P04637, R273H); experiment: Dot immunobinding test with total cell extracts; format: binding; settings: total extracts 1 mg, peptide on nitrocellulose membrane
T1 construct: Total extracts deriving from SKBR3, (His-175) HT29, (His-273) and H1299 (p53 free) tumour cells; endogenous in cells; host or cells: HT29 total cell extract
Procedure: (§4) (A) Total extracts deriving from SKBR3, (His-175) HT29, (His-273) and H1299 (p53 free) tumour cells have been incubated (1 mg) on SIMP1 and SIMPIKO peptide labelled nitrocellulose membrane and Dot Blot analysed. In (B) the membranes have been incubated with 20 μg of wild type WT GST-p53 purified protein or GST-p53 His-175, GST-p53-His-175, 74-298 or GST alone. In both experiments dots have been detected by labelling the membranes with anti-p53 (DO1) antibody
(§5) Nitrocellulose membranes have been cut, washed with water and blotted on the paper filters. The peptides at 250 mM concentration have been transferred on membrane. Labelled membrane has been washed for 10 min. with TBST buffer (10 mM Tris-HCl pH 7.4, 150 mM NaCl, 0.05% (v/v) Tween-20) and then blocked for 45 min with TBST/5% milk. Then the membranes have been incubated for 6 hours at 4° C. in shaker with 1 mg of total protein extract or 20 μg of GST fusion purified proteins. Successively the membranes have been washed with TBST buffer and decorated with anti-p53 antibody (DO1) as a primary antibody. As secondary antibody horse peroxidase conjugated goat antibody has been used. Immunolabelled lanes have been detected using chemiluminescence analysis (Pierce).
(§6) The membranes decorated with SIMP peptides also have been incubated with GST-p53 His175, GST p53His74-298, GST WTp53 fusion proteins, GST control.

GST-p53 His175 = GST-p53 His175 (Homo sapiens, UniProt P04637, R175H); experiment: Dot immunobinding test with purified GST-p53 fusion proteins; format: binding; settings: 20 μg GST fusion purified proteins
Procedure: as §4, §5, §6

[3] = system: MDA-MB468 breast and HT29 colon carcinoma cell lines; experiment: Cell viability / proliferation assays after peptide transfection; format: cell-based, human; settings: peptide transfected cells
Procedure: as §3
Cell viability has been tested using Trypan Blue exclusion assays.
We observed a reduction of cell proliferation in MDA-MB468 breast and HT29 colon carcinoma cell lines.

In the case of “FQQSSTAKSATW (p73 SIMP (aa 131-142)) [SIMP1]”, the “Adriamycin chemosensitivity / p73 transcription response” value [1] is reported as “increases the Adriamycin sensitivity; also recorded: increase Adriamycin chemosensitivty; also recorded: increased p73 transcription response as an adriamycin response”, the “sensitivity to Adriamycin” value [2] is reported as “made the same more sensitive to the treatment with Adriamycin” and the “direct binding to mutp53 His-273 (dot blot, anti-p53 DO1)” value (mutp53 His-273 protein) is reported as “binds directly the mutp53 His-273 protein”. The “reaction with GST-p53 fusion proteins (dot blot, anti-p53 DO1)” value (GST-p53 His175) was “no reaction was observed” and the “cell proliferation in vitro” value [3] was “reduce the cell proliferation in vitro”.
